# Patent US20190297887A1, “BICYCLIC COMPOUNDS AS PESTICIDES” (Bayer CropScience Aktiengesellschaft, priority 2016, published 2019)
# Like-named read-outs stand apart in the source and are kept apart here.
# Columns and labels:
# [1] = system: southern root-knot nematode (Meloidogyne incognita); test: Meloidogyne incognita test; type: in vivo; details: application rate 20 ppm; after 14 days; lettuce in sand; 100% = no galls
# Method: Meloidogyne incognita Test Solvent: 125.0 parts by weight of acetone To produce a suitable active ingredient formulation, 1 part by weight of active ingredient is mixed with the stated amount of solvent and the concentrate is diluted to the desired concentration with water. Vessels are filled with sand, active ingredient solution, an egg/larvae suspension of the southern root-knot nematode (Meloidogyne incognita) and lettuce seeds. The lettuce seeds germinate and the plants develop. The galls develop on the roots. After 14 days, the nematicidal efficacy in % is determined by the formation of galls. 100% means that no galls were found; 0% means that the number of galls on the treated plants corresponds to the untreated control.
# [2] = log P determination by HPLC on reversed-phase columns (OECD Guideline 117); type: physicochemical; details: reversed-phase (C18) HPLC column
# Method: The log P values were determined in accordance with OECD Guideline 117 (EC Directive 92/69/EEC) by HPLC (high-performance liquid chromatography) using reversed-phase (RP) columns (C18), by the following methods: [a] The LC-MS determination in the acidic range is carried out at pH 2.7 with 0.1% aqueous formic acid and acetonitrile (contains 0.1% formic acid) as eluents; linear gradient from 10% acetonitrile to 95% acetonitrile. [b] LC-MS determination in the neutral range is carried out at pH 7.8 with 0.001 molar aqueous ammonium hydrogencarbonate solution and acetonitrile as eluents; linear gradient from 10% acetonitrile to 95% acetonitrile. Calibration is effected using unbranched alkan-2-ones (having 3 to 16 carbon atoms) with known log P values (log P values determined on the basis of the retention times by linear interpolation between two successive alkanones).
# [3] = system: green peach aphids (Myzus persicae); test: Myzus persicae - oral test; type: in vivo; details: 120 h, application rate 4 ppm, after 5 days, oral uptake from microtitre plate, read-out: efficacy in % (aphids killed)
# Method: Myzus persicae—Oral Test Solvent: 100 parts by weight of acetone To produce a suitable active ingredient formulation, 1 part by weight of active ingredient is dissolved with the stated parts by weight of solvent and made up to the desired concentration with water. 50 μl of the active ingredient formulation are transferred into microtitre plates and made up to a final volume of 200 μl with 150 μl of IPL41 insect medium (33%+15% sugar). Subsequently, the plates are sealed with parafilm, which a mixed population of green peach aphids (Myzus persicae) within a second microtitre plate is able to puncture and imbibe the solution. After 5 days, the efficacy in % is determined. 100% means that all the aphids have been killed; 0% means that no aphids have been killed.
# [4] = system: green peach aphid (Myzus persicae); test: Myzus persicae - spray test; type: in vivo; details: foliar, application rate 500 g/ha, after 5-6 days, sprayed Chinese cabbage leaf discs, read-out: efficacy in % (aphids killed)
# Method: Myzus persicae—Spray Test Solvent: 78 parts by weight of acetone • • 1.5 parts by weight of dimethylformamide Emulsifier: alkylaryl polyglycol ether To produce a suitable active ingredient formulation, 1 part by weight of active ingredient is dissolved with the specified parts by weight of solvent and made up to the desired concentration with water containing an emulsifier concentration of 1000 ppm. To produce further test concentrations, the formulation is diluted with emulsifier-containing water. Discs of Chinese cabbage leaves (Brassica pekinensis) infested by all stages of the green peach aphid (Myzus persicae) are sprayed with an active ingredient formulation of the desired concentration. After 5-6 days, the efficacy in % is determined. 100% means that all the aphids have been killed; 0% means that no aphids have been killed.
# [5] = system: larvae of the mustard beetle (Phaedon cochleariae); test: Phaedon cochleariae - spray test; type: in vivo; details: application rate 500 g/ha; after 7 days; sprayed Chinese cabbage leaf discs
# Method: Phaedon cochleariae—Spray Test
# Solvent: 78.0 parts by weight of acetone • • 1.5 parts by weight of dimethylformamide
# Emulsifier: alkylaryl polyglycol ether
# To produce a suitable active ingredient formulation, 1 part by weight of active ingredient is dissolved with the specified parts by weight of solvent and made up to the desired concentration with water containing an emulsifier concentration of 1000 ppm. To produce further test concentrations, the formulation is diluted with emulsifier-containing water.
# Discs of Chinese cabbage leaves (Brassica pekinensis) are sprayed with an active compound formulation of the desired concentration and, after drying, populated with larvae of the mustard beetle (Phaedon cochleariae).
# After 7 days, the efficacy in % is determined. 100% means that all the beetle larvae have been killed; 0% means that no beetle larvae have been killed.
# [6] = acidic range, pH 2.7, 0.1% aqueous formic acid/acetonitrile, read-out: log P(HCOOH)
# [7] = neutral range, pH 7.8, 0.001 molar aqueous ammonium hydrogencarbonate/acetonitrile, read-out: log P(neutral)
Compound,pest or weed control at 4 ppm [3] [%],pest or weed control at 500 g/ha [4] [%],further results
"Cn1c(=O)n(C)n(-c2ccc3nn(-c4cccnc4)cc3c2)c1=O [Example 1, 1,4-Dimethyl-2-[2-(pyridin-3-yl)-2H-indazol-5-yl]-1,2,4-triazolidine-3,5-dione]",100,90,"nematicidal efficacy in % (formation of galls) [1]: 90%; chromatographic logP [2, 6]: 1.24; chromatographic logP [2, 7]: 1.31"
"Cn1c(=O)cnn(-c2ccc3nn(-c4cccnc4)cc3c2)c1=O [Example 2, 4-Methyl-2-[2-(pyridin-3-yl)-2H-indazol-5-yl]-1,2,4-triazine-3,5(2H,4H)-dione]",100,90,"chromatographic logP [2, 6]: 1.38; chromatographic logP [2, 7]: 1.47"
Cn1c(=O)n(C2CC2)c(=O)n1-c1ccc2nn(-c3cccnc3)cc2c1 [Example 3],100,100,
Cn1c(=O)n(-c2ccccc2)c(=O)n1-c1ccc2nn(-c3cccnc3)cc2c1 [Example 4],100,90,efficacy in % (beetle larvae killed) [5]: 83%
CCn1c(=O)n(C)n(-c2ccc3nn(-c4cccnc4)cc3c2)c1=O [Example 5],100,90,
CSCCn1c(=O)n(C)n(-c2ccc3nn(-c4cccnc4)cc3c2)c1=O [Example 6],90,100,
Cn1c(=O)n(CC2CC2)c(=O)n1-c1ccc2nn(-c3cccnc3)cc2c1 [Example 7],100,90,
Cn1c(=O)n(Cc2ccccc2)c(=O)n1-c1ccc2nn(-c3cccnc3)cc2c1 [Example 8],100,100,
Cn1c(=O)n(CC(F)(F)F)c(=O)n1-c1ccc2nn(-c3cccnc3)cc2c1 [Example 9],100,90,
Cn1c(=O)n(CC(F)(F)F)n(-c2ccc3nn(-c4cccnc4)cc3c2)c1=O [Example 10],100,,
Cn1c(=O)n(CC[S+](C)[O-])c(=O)n1-c1ccc2nn(-c3cccnc3)cc2c1 (stereo not shown) [Example 11],100,90,
COCCn1c(=O)n(C)n(-c2ccc3nn(-c4cccnc4)cc3c2)c1=O [Example 12],100,90,
CC(C)n1c(=O)n(C)n(-c2ccc3nn(-c4cccnc4)cc3c2)c1=O [Example 13],90,,
Cn1c(=O)n(CC(F)F)c(=O)n1-c1ccc2nn(-c3cccnc3)cc2c1 [Example 14],100,90,
Cn1c(=O)n(Cc2ccc(Cl)cc2)c(=O)n1-c1ccc2nn(-c3cccnc3)cc2c1 [Example 15],100,,
Cn1c(=O)n(Cc2ccccc2Cl)c(=O)n1-c1ccc2nn(-c3cccnc3)cc2c1 [Example 16],90,,
Cn1c(=O)n(Cc2cccc(Cl)c2)c(=O)n1-c1ccc2nn(-c3cccnc3)cc2c1 [Example 17],100,,
CCn1c(=O)n(C)n(-c2cnc3nn(-c4cccnc4)cc3c2)c1=O [Example 18],100,100,
Cn1c(=O)n(C)n(-c2cnc3nn(-c4cccnc4)cc3c2)c1=O [Example 19],90,100,
Cn1c(=O)n(C2CC2)c(=O)n1-c1cnc2nn(-c3cccnc3)cc2c1 [Example 20],100,90,
Cn1c(=O)n(CC2CC2)c(=O)n1-c1cnc2nn(-c3cccnc3)cc2c1 [Example 21],100,100,
CC(C)n1c(=O)n(C)n(-c2cnc3nn(-c4cccnc4)cc3c2)c1=O [Example 22],100,,
Cn1c(=O)n(Cc2ccc(Cl)nc2)c(=O)n1-c1ccc2nn(-c3cccnc3)cc2c1 [Example 23],100,100,
O=c1cnn(-c2ccc3nn(-c4cccnc4)cc3c2)c(=O)n1CC(F)(F)F [Example 24],100,,
CCn1c(=O)cnn(-c2ccc3nn(-c4cccnc4)cc3c2)c1=O [Example 25],100,100,efficacy in % (beetle larvae killed) [5]: 83%
O=c1cnn(-c2ccc3nn(-c4cccnc4)cc3c2)c(=O)n1CC1CC1 [Example 26],100,90,
O=c1cnn(-c2ccc3nn(-c4cccnc4)cc3c2)c(=O)n1Cc1ccccc1 [Example 27],100,90,
O=c1cnn(-c2ccc3nn(-c4cccnc4)cc3c2)c(=O)n1-c1ccccc1 [Example 28],90,,
